# Source: US11505530B2, “1,8-naphthalimide derivative, preparation method therefor and use thereof” (SOOCHOW UNIVERSITY, priority 2018, dated 2022)
# How the values were obtained:
# Format in all cases: physicochemical
# [1] = Effect of coexisting metal ions on BNGT as pH colorimetric switch; conditions: pH 5.8 and pH 6.0, metal ions 100 μM
# Method: In order to understand the interference of common metal ions on BNGT as a pH colorimetric switch, Fe^2+, Fe^3+, Cu^2+, K^+, Na^+, Mg^2+, Ag^+, Zn^2+, Cr^3+, Cd^2+, […], Ni^2+, Mn^2+, Pb^2+, Hg^2+ and Ca^2+ were added to the acetonitrile/water (in a volume ratio of 1/99 (a), 1/1 (b) and 8/2 (c)) solution, and the UV-Vis absorption spectra of the solution before and after the addition of these metal ions were obtained. […]
# Second, the effect of coexisting metal ions on the absorbance of the solution at 527 nm, 535 nm and 537 nm was investigated, with the results as shown in FIG. 11; solvent: acetonitrile/water, in a volume ratio of 1/99 (a), 1/1 (b) and 8/2 (c); concentration: BNGT 10 μM, metal ions 100 μM; 1: none, 2: Ca^2+, 3: Mg^2+, 4: Ag^+, 5: Pb^2+, 6: Cu^2+, 7: Mn^2+, 8: Co^2+, 9: Cd^2+, 10: Ni^2+, 11: K^+, 12: Na^+, 13: Fe^3+, 14: Zn^2+, 15: Cr^2+, 16: Hg^2+, 17: Fe^2+; absorption wavelength: 527 nm, 535 nm and 537 nm. […] Therefore, the aforementioned metal ions had little effect on the response of BNGT to pH in terms of enhanced absorbance.
# [2] = Reversibility of BNGT as pH colorimetric switch; conditions: pH alternating between 5.8 and 6.0
# Source text: 1 M HCl and 1 M NaOH were used to make the pH value of the acetonitrile/water (in a volume ratio of 1/99 (a), 1/1 (b) and 8/2 (c)) solution of BNGT alternately change between 5.8 and 6.0, so as to determine the UV-Vis absorption spectrum of the solution.
# First, the reversibility of response of the maximum absorption wavelength and color of the solution to pH was investigated, with the results as shown in FIG. 12; solvent: acetonitrile/water, in a volume ratio of 1/99 (a), 1/1 (b) and 8/2 (c); concentration: BNGT 10 μM.
# Second, the reversibility of response of the absorbance of BNGT to pH at 527 nm, 535 nm and 537 nm was investigated, with the results as shown in FIG. 13; solvent: acetonitrile/water, in a volume ratio of 1/99 (a), 1/1 (b) and 8/2 (c); concentration: BNGT 10 μM; the maximum absorption wavelengths corresponding to the absorbance of the three solutions were 527 nm, 535 nm and 537 nm, respectively. It can be seen from the figure that the pH value alternated between 5.8 and 6.0, and the absorbance of the acetonitrile/water (in a volume ratio of 1/99 (a), 1/1 (b) and 8/2 (c)) solution of BNGT also changed circularly from small to large at 527 nm, 535 nm and 537 nm, respectively.
# [3] = Speed of response of BNGT to pH; conditions: three solvents
# Source text: To investigate the speed of response of BNGT to pH, adding 1 M NaOH aqueous solution to an acetonitrile/water (in a volume ratio of 1/99 (a), 1/1 (b) and 8/2 (c)) solution of BNGT at pH 5.8 to adjust the pH to 6.0; measuring the UV-Vis absorption spectrum of the solution before and after the adjustment, and plotting the maximum absorption wavelength and color over time, with the results as shown in FIG. 8; solvent: acetonitrile/water, in a volume ratio of 1/99 (a), 1/1 (b) and 8/2 (c); concentration: BNGT 10 μM.
# The absorbance was plotted against time and the results were shown in FIG. 9; solvent: acetonitrile/water, in a volume ratio of 1/99 (a), 1/1 (b) and 8/2 (c); concentration: BNGT 10 μM; absorption wavelength: 527 nm, 535 nm and 537 nm.
# [4] = UV-Vis absorption response of BNGT to pH; conditions: for maximum absorption wavelength: BNGT 10 μM
# Method: Preparing a 1.0×10^−3 mol/L BNGT stock solution with acetonitrile as a solvent, and transferring 100 μL of the BNGT stock solution respectively into three series of 10 mL volumetric flasks; adding 7 mL of deionized water to the first series of volumetric flasks, adding 2 mL of deionized water and 5 ml of acetonitrile to the second series of volumetric flasks, and adding 1 mL of deionized water and 8 ml of acetonitrile to the third series of volumetric flasks; then titrating to the desired pH value respectively with 0.1 M NaOH and 0.1 M HCl aqueous solutions, and finally making up to volume with deionized water to obtain an acetonitrile/water solution of BNGT with different pHs in three solvent systems, the volume ratios of acetonitrile/water in the three solvent systems being 1/99, 1/1 and 8/2, respectively.
# Therefore, in the three solvents (acetonitrile/water in a volume ratio of 1/99, 1/1 and 8/2), BNGT could be used as a pH colorimetric switch by means of three ways (a maximum absorption wavelength, absorbance and color).
# [5] = pH 5.8 to 6.0, acetonitrile/water 1/1
# [6] = pH 5.8 to 6.0, acetonitrile/water 1/99
# [7] = pH 5.8 to 6.0, acetonitrile/water 8/2
smiles,measurement,setting,value
CCCCN1C(=O)c2cccc3c(NN=CC=NC(CO)(CO)CO)ccc(c23)C1=O [BNGT],effect of coexisting metal ions on absorbance,"[1]; 527 nm, 535 nm and 537 nm",did not change much
same,effect of coexisting metal ions on maximum absorption wavelength and color,"[1]; BNGT 10 μM, three solvents",almost unchanged
same,reversibility of response of absorbance to pH,"[2]; 527 nm, 535 nm and 537 nm",very good reversibility
same,reversibility of response of maximum absorption wavelength and color to pH,[2]; three solvents,good reversibility
same,stability of absorbance for the next 30 min,[3]; after pH adjusted to 6.0,remained basically stable
same,time for absorbance to reach the maximum,"[3]; pH 5.8 adjusted to 6.0 with NaOH, 527 nm, 535 nm and 537 nm",about 2 min
same,color change,[3]; pH changed from 5.8 to 6.0,colorless to red
same,maximum absorption wavelength,"[4]; pH 1.9 to 5.8, acetonitrile/water 1/1",around 420 nm
same,maximum absorption wavelength,"[4]; pH 1.9 to 5.8, acetonitrile/water 1/99",around 432 nm
same,maximum absorption wavelength,"[4]; pH 1.9 to 5.8, acetonitrile/water 8/2",around 422 nm
same,increase of absorbance at 535 nm,[4]; [5],about 20 times
same,red shift of maximum absorption wavelength,[4]; [5],115 nm
same,increase of absorbance at 527 nm,[4]; [6],about 6 times
same,red shift of maximum absorption wavelength,[4]; [6],95 nm
same,increase of absorbance at 537 nm,[4]; [7],about 28 times
same,red shift of maximum absorption wavelength,[4]; [7],115 nm
same,maximum absorption wavelength,"[4]; pH 6.0 to 12.0, acetonitrile/water 1/1",around 535 nm
same,maximum absorption wavelength,"[4]; pH 6.0 to 12.0, acetonitrile/water 1/99",about 527 nm
same,maximum absorption wavelength,"[4]; pH 6.0 to 12.0, acetonitrile/water 8/2",around 537 nm
